# Values joined by “and” are separate entries in the source; they are usually repeats but may differ in a detail not shown here. Equal values may be shown once.
# Tested on: 292921-168-R-J2-PDC spheroids with HUVEC/MSC, viability
# Assay: Anticancer human tumor 292921-168-R-J2-PDC patient-derived pancreatic carcinoma cell line growth inhibition [TAK]
# Settings: for viability, T/C: stronger effect = lower value
# Outline: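 Drug combinations, each paired with TAK-243 or ipatasertib, were tested on multi-cell spheroids of 60% malignant cells, 25% HUVEC and 15% hMSC. Top concentrations were at or near the clinical Cmax (10 microM if undetermined), decreasing by half-log; viability is given as % test/control.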
# 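Also: spheroids exposed to drugs for seven days before readout.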
compound,measurement,setting,value
COc1c(OCCCN2CCOCC2)ccc2c3n(c(=NC(=O)c4cnc(N)nc4)nc12)CCN3 + CC(C)NCC(C(=O)N1CCN(c2ncnc3c2C(C)CC3O)CC1)c1ccc(Cl)cc1,IC50,"curve of first compound, second compound 0.3 µM",4.15 nM
same,IC50,"curve of first compound, second compound 0.949 µM",< 3.16 nM
same,IC50,"curve of first compound, second compound 3 µM",< 3.16 nM
same,IC50,"curve of first compound, second compound 9.49 µM",< 3.16 nM
same,IC50,"curve of first compound, second compound 30 µM",< 3.16 nM
same,"viability, T/C","second compound 0.3 µM, first compound 0.00316 µM",55.2%
same,"viability, T/C","second compound 0.3 µM, first compound 0.01 µM",33.2%
same,"viability, T/C","second compound 0.3 µM, first compound 0.0316 µM",19.1%
same,"viability, T/C","second compound 0.3 µM, first compound 0.1 µM",13.5%
same,"viability, T/C","second compound 0.3 µM, first compound 0.316 µM",10.2%
same,"viability, T/C","second compound 0.3 µM, first compound 1 µM",9.21%
same,"viability, T/C","second compound 0.949 µM, first compound 0.00316 µM",43.5%
same,"viability, T/C","second compound 0.949 µM, first compound 0.01 µM",27.5%
same,"viability, T/C","second compound 0.949 µM, first compound 0.0316 µM",20%
same,"viability, T/C","second compound 0.949 µM, first compound 0.1 µM",13.1%
same,"viability, T/C","second compound 0.949 µM, first compound 0.316 µM",9.66%
same,"viability, T/C","second compound 0.949 µM, first compound 1 µM",8.79%
same,"viability, T/C","second compound 3 µM, first compound 0.00316 µM",30.2%
same,"viability, T/C","second compound 3 µM, first compound 0.01 µM",21.4%
same,"viability, T/C","second compound 3 µM, first compound 0.0316 µM",15.2%
same,"viability, T/C","second compound 3 µM, first compound 0.1 µM",12.4%
same,"viability, T/C","second compound 3 µM, first compound 0.316 µM",9.94%
same,"viability, T/C","second compound 3 µM, first compound 1 µM",8.66%
same,"viability, T/C","second compound 9.49 µM, first compound 0.00316 µM",26.4%
same,"viability, T/C","second compound 9.49 µM, first compound 0.01 µM",15.9%
same,"viability, T/C","second compound 9.49 µM, first compound 0.0316 µM",12%
same,"viability, T/C","second compound 9.49 µM, first compound 0.1 µM",9.29%
same,"viability, T/C","second compound 9.49 µM, first compound 0.316 µM",8.18%
same,"viability, T/C","second compound 9.49 µM, first compound 1 µM",7.72%
same,"viability, T/C","second compound 30 µM, first compound 0.00316 µM",19.8%
same,"viability, T/C","second compound 30 µM, first compound 0.01 µM",14.1%
same,"viability, T/C","second compound 30 µM, first compound 0.0316 µM",10.3%
same,"viability, T/C","second compound 30 µM, first compound 0.1 µM",7.72%
same,"viability, T/C","second compound 30 µM, first compound 0.316 µM",6.76%
same,"viability, T/C","second compound 30 µM, first compound 1 µM",7.15%
Cn1cnc2c(F)c(Nc3ccc(Br)cc3Cl)c(C(=O)NOCCO)cc21,"viability, T/C",compound 0.00949 µM,57.2% and 47.3%
same,"viability, T/C",compound 0.03 µM,40.2% and 34.1%
same,"viability, T/C",compound 0.0949 µM,33.8% and 27.4%
same,"viability, T/C",compound 0.3 µM,31% and 24.2%
same,"viability, T/C",compound 0.949 µM,25.6% and 21.6%
same,"viability, T/C",compound 3 µM,15.3% and 11.8%
same,IC50,curve of compound,15.8 nM and < 9.49 nM
CCCS(=O)(=O)Nc1ccc(F)c(C(=O)c2c[nH]c3ncc(-c4ccc(Cl)cc4)cc23)c1F,"viability, T/C",compound 0.316 µM,113% and 128%
same,"viability, T/C",compound 1 µM,117% and 127%
same,"viability, T/C",compound 3.16 µM,108% and 113%
same,"viability, T/C",compound 10 µM,55.1% and 67.5%
same,"viability, T/C",compound 31.6 µM,99.6% and 62.3%
same,"viability, T/C",compound 100 µM,80% and 94.5%
same,IC50,curve of compound,> 100000 nM
CC(=O)Nc1cccc(-n2c(=O)n(C3CC3)c(=O)c3c(Nc4ccc(I)cc4F)n(C)c(=O)c(C)c32)c1,"viability, T/C",compound 94.9 pM,91.6% and 97.1%
same,"viability, T/C",compound 0.0003 µM,58.9% and 67.7%
same,"viability, T/C",compound 0.000949 µM,36.9% and 48.5%
same,"viability, T/C",compound 0.003 µM,25.6% and 25.7%
same,"viability, T/C",compound 0.00949 µM,17.6% and 20.3%
same,"viability, T/C",compound 0.03 µM,11.1%
same,IC50,curve of compound,0.49 nM and 0.767 nM
CC(C)(C)c1nc(-c2cccc(NS(=O)(=O)c3c(F)cccc3F)c2F)c(-c2ccnc(N)n2)s1,"viability, T/C",compound 0.0316 µM,109% and 122%
same,"viability, T/C",compound 0.1 µM,117% and 139%
same,"viability, T/C",compound 0.316 µM,111% and 110%
same,"viability, T/C",compound 1 µM,85% and 84.2%
same,"viability, T/C",compound 3.16 µM,62.5% and 67.1%
same,"viability, T/C",compound 10 µM,34% and 30.9%
same,IC50,curve of compound,4980 nM
CC(C)NCC(C(=O)N1CCN(c2ncnc3c2C(C)CC3O)CC1)c1ccc(Cl)cc1 (centres undefined),"viability, T/C",compound 0.3 µM,87.8% [middle of 10 runs]
same,"viability, T/C",compound 0.949 µM,83% [middle of 10 runs]
same,"viability, T/C",compound 3 µM,77.3% [middle of 10 runs]
same,"viability, T/C",compound 9.49 µM,62.3% [middle of 10 runs]
same,"viability, T/C",compound 30 µM,42.4% [middle of 10 runs]
same,IC50,"compound alone, run of 02/20/2020",18800 nM

# From PubChem BioAssay AID2060357 (Molecular Pharmacology Branch, DTP, NCI, 2025)
